Experimental findings from ChEMBL document CHEMBL1201862, “PubChem BioAssay data set” (2004) are described below.

Some test systems named below: HCT-15; SNB-75; LOX IMVI; TK-10; SF-295; MOLT-4; A549; RXF 393; U-251; HOP-62; OVCAR-5; T47D; OVCAR-8; UACC-257; SK-MEL-2; NCI-H23; OVCAR-4; Malme-3M; HL-60; SF-539.
What all share (assay): NCI-60 cell line screen, 48 h

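1) Cells in 96-well plates. 2) Compound, 48 h, 5 concentrations. 3) Linear interpolation between surrounding doses. 4) Unreached endpoint = highest concentration. Here, GI50 denotes the concentration required for 50% inhibition of growth.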 The source made the active and inactive calls. No stated cut-off is given here; in the data, active = GI50 up to about 1.1 µM and inactive = higher. A value given as a limit tells only on which side of the number the result lay.

Consider `N#CC(C#N)=C(N)/C(C#N)=C/c1ccc2ccccc2n1`, for which the GI50 was 28.8 µM in the test on HCT-15; 25.8 µM (inactive) with SNB-75; 19.3 µM (inactive) in the test with LOX IMVI; > 100 µM (inactive) in the test with TK-10; 21.3 µM (inactive) in the test with SF-295; 30.3 µM (inactive) in the test on MOLT-4. Moreover, the GI50 in the test on A549 is > 100 µM (inactive); in the test on RXF 393, 20 µM (inactive); in the test on U-251 it was > 10 µM (inactive); in the test with HOP-62 it was 16 µM (inactive); in the test with OVCAR-5, > 100 µM (inactive); in the test on T47D it was > 100 µM (inactive). Also, the GI50 is 30.5 µM (inactive) with OVCAR-8; 48.8 µM (inactive) in the test with UACC-257; 35 µM (inactive) with SK-MEL-2; 31.6 µM (inactive) in the test on NCI-H23; 35.4 µM (inactive) with OVCAR-4; 96.8 µM (inactive) with Malme-3M.

For `C=CC[C@@H](N)C(=O)N(C)[C@@H](C)[C@@H](O)c1ccccc1`, the GI50 with HL-60 was > 100 µM (inactive); in the test on HCT-15, over 100 µM; with SNB-75, 5.77 µM (inactive); in the test with LOX IMVI it was > 100 µM (inactive); with TK-10, > 100 µM (inactive); with SF-295 it was > 100 µM (inactive). For the same compound, the GI50 with MOLT-4, in the test on SF-539, in the test on A549, in the test on U-251, in the test with HOP-62 and in the test with T47D was > 100 µM (inactive) in each case. Besides, the GI50 in the test with OVCAR-8, in the test on UACC-257, in the test on SK-MEL-2, in the test on NCI-H23 and in the test on OVCAR-4 was > 100 µM (inactive) each time.

As for `Cc1ccc(NC(=O)COc2ccc(Cl)cc2)cc1Cl`, the GI50 is over 100 µM with HCT-15; 59 µM (inactive) in the test with SNB-75; 82 µM (inactive) in the test with LOX IMVI; 27.3 µM (inactive) in the test on TK-10; 50.5 µM (inactive) in the test with SF-295; > 100 µM (inactive) in the test on MOLT-4. Also, the GI50 with SF-539 was 83.6 µM (inactive); with A549, 74.1 µM (inactive); in the test with RXF 393, 24.7 µM (inactive); in the test on U-251, 27.4 µM (inactive); in the test with HOP-62, 20 µM (inactive); in the test with OVCAR-5 it was 68.1 µM (inactive). Also, the GI50 in the test on T47D was > 100 µM (inactive); in the test with OVCAR-8, 28.9 µM (inactive); in the test on UACC-257, 83.4 µM (inactive); in the test on SK-MEL-2 it was > 100 µM (inactive); in the test with NCI-H23, 19.7 µM (inactive); in the test with OVCAR-4, > 100 µM (inactive). The GI50 in the test on Malme-3M was 30.5 µM (inactive).

Regarding `CSc1ncc2c(n1)sc1c(=O)n(-c3ccccc3)cnc12`, the GI50 with HCT-15 is over 100 µM; with SNB-75, > 100 µM (inactive); in the test on LOX IMVI, > 100 µM (inactive); with TK-10, > 100 µM (inactive); in the test with SF-295, > 100 µM (inactive); with MOLT-4, > 100 µM (inactive). For the same compound, the GI50 in the test with A549, with RXF 393, with U-251, with HOP-62, in the test with OVCAR-5 and in the test with T47D was > 100 µM (inactive) in each case. In addition, the GI50 in the test with OVCAR-8, with UACC-257, in the test on SK-MEL-2, with NCI-H23, with OVCAR-4 and with Malme-3M was > 100 µM (inactive) throughout.

As for `CCc1n[nH]c(=O)n1-c1ccc2ccccc2c1`, the GI50 in the test on HCT-15 is over 100 µM; in the test with SNB-75, > 100 µM (inactive); in the test on LOX IMVI it was > 100 µM (inactive); in the test on TK-10 it was > 100 µM (inactive); with SF-295 it was > 100 µM (inactive); with MOLT-4, > 100 µM (inactive). Further, the GI50 with SF-539, in the test with A549, with RXF 393, in the test on U-251, in the test with HOP-62 and in the test with OVCAR-5 was > 100 µM (inactive) each time. Besides, the GI50 in the test with T47D, in the test on OVCAR-8, in the test on UACC-257, in the test with SK-MEL-2, with NCI-H23 and in the test with OVCAR-4 was > 100 µM (inactive) in each case. In addition, the GI50 with Malme-3M was > 100 µM (inactive).

Take `O=C1c2c(O)cc(O)cc2C(C2OC(CO)C(O)C(O)C2O)c2cc(CO)cc(O)c21` (stereo unspecified): the GI50 was > 100 µM (inactive) with HL-60; over 100 µM in the test with HCT-15; 22.5 µM (inactive) in the test with SNB-75; > 100 µM (inactive) in the test with TK-10; > 100 µM (inactive) in the test with SF-295; > 100 µM (inactive) with MOLT-4. For the same compound, the GI50 in the test on A549, in the test with U-251, with HOP-62, in the test with OVCAR-5, in the test with T47D and in the test on OVCAR-8 was > 100 µM (inactive) each time. The GI50 was > 100 µM (inactive) with UACC-257, > 100 µM (inactive) in the test with NCI-H23, > 100 µM (inactive) with OVCAR-4 and 55.7 µM (inactive) in the test with Malme-3M.

Regarding `CC(C)CNP(=O)(NCC(C)C)Oc1ccc(CC(NC(=O)OCc2ccccc2)C(=O)OCc2ccccc2)cc1` (stereo unspecified), the GI50 was 26.9 µM in the test on HCT-15; 19.5 µM (inactive) in the test with SNB-75; 16.1 µM (inactive) in the test with LOX IMVI; 31.4 µM (inactive) in the test on TK-10; 18.5 µM (inactive) in the test on SF-295; 13.9 µM (inactive) in the test on MOLT-4. Also, the GI50 is 47.5 µM (inactive) in the test on A549; 18.5 µM (inactive) in the test on RXF 393; 16.5 µM (inactive) with U-251; 14.7 µM (inactive) with HOP-62; > 100 µM (inactive) in the test on OVCAR-5; 13.4 µM (inactive) in the test with T47D. In addition, the GI50 is 17.3 µM (inactive) with OVCAR-8; 24.8 µM (inactive) in the test on UACC-257; 18.5 µM (inactive) in the test on SK-MEL-2; 15.3 µM (inactive) with NCI-H23; 18.3 µM (inactive) with OVCAR-4; 19.1 µM (inactive) in the test on Malme-3M.

For the compound `CCn1cnc2c(NC(C)=O)ncnc21`, the GI50 with HCT-15 is over 100 µM; in the test with SNB-75 it was 1.33 µM (inactive); with LOX IMVI, > 100 µM (inactive); with TK-10, > 100 µM (inactive); with SF-295, > 100 µM (inactive); in the test with MOLT-4 it was > 100 µM (inactive). Further, the GI50 in the test on SF-539, with A549, in the test on RXF 393, in the test with U-251, in the test with HOP-62 and with OVCAR-5 was > 100 µM (inactive) in each case. Also, the GI50 with T47D, in the test with OVCAR-8, in the test with UACC-257, in the test with SK-MEL-2, in the test on NCI-H23 and in the test on OVCAR-4 was > 100 µM (inactive) throughout. Besides, in the test on Malme-3M, the GI50 is > 100 µM (inactive).

In the case of `CCOC(=O)CNC(=O)C(CSC(=O)N(O)c1ccc(Cl)cc1)NC(=O)CCC(N)C(=O)OCC` (stereo unspecified), the GI50 is over 50 µM with HCT-15; > 50 µM (inactive) in the test with LOX IMVI; > 50 µM (inactive) with SF-295; 19.3 µM (inactive) in the test on MOLT-4; > 50 µM (inactive) in the test on SF-539; > 50 µM (inactive) with A549. For the same compound, the GI50 in the test with RXF 393 was > 50 µM (inactive); with U-251, > 50 µM (inactive); with HOP-62 it was 24.3 µM (inactive); with OVCAR-5, > 50 µM (inactive); in the test with T47D it was > 50 µM (inactive); with OVCAR-8, > 50 µM (inactive). Further, the GI50 in the test on UACC-257, in the test on SK-MEL-2 and in the test with NCI-H23 was > 50 µM (inactive) throughout.

As for `Cn1c(C(C#N)c2nc(Cl)ncc2Br)nc2ccccc21` (stereo unspecified), the GI50 with HCT-15 is over 100 µM; with SNB-75, 82 µM (inactive); in the test with LOX IMVI it was > 100 µM (inactive); in the test with TK-10, > 100 µM (inactive); in the test on SF-295, > 100 µM (inactive); in the test on MOLT-4, > 100 µM (inactive). In addition, the GI50 in the test on SF-539 is 44.5 µM (inactive); in the test with A549 it was > 100 µM (inactive); in the test with RXF 393 it was > 100 µM (inactive); in the test with U-251, > 100 µM (inactive); in the test on HOP-62, > 100 µM (inactive); with OVCAR-5, > 100 µM (inactive). Besides, the GI50 in the test with T47D, with OVCAR-8, in the test with UACC-257, in the test with NCI-H23, in the test with OVCAR-4 and with Malme-3M was > 100 µM (inactive) each time.

For the compound `O=C(O)c1nc(-c2ccccc2)[nH]c1C(=O)O`, the GI50 was 14.3 µM with HCT-15; 19.4 µM (inactive) in the test on SNB-75; 3.01 µM (inactive) in the test on LOX IMVI; 15.5 µM (inactive) in the test with TK-10; 16.7 µM (inactive) in the test on SF-295; 1.04 µM (active) in the test on MOLT-4. For the same compound, the GI50 is 7.8 µM (inactive) in the test on SF-539; 14 µM (inactive) in the test on A549; 13.5 µM (inactive) in the test with RXF 393; 4.18 µM (inactive) in the test with U-251; 16 µM (inactive) in the test on HOP-62; 17.2 µM (inactive) with OVCAR-5. Moreover, the GI50 was 15.3 µM (inactive) with T47D; 14.1 µM (inactive) in the test with OVCAR-8; 16.6 µM (inactive) in the test on UACC-257; 7.76 µM (inactive) with SK-MEL-2; 13.9 µM (inactive) in the test on NCI-H23; 16.8 µM (inactive) in the test on OVCAR-4. In the test on Malme-3M, the GI50 is 15.3 µM (inactive).
